Tests used:
[1] = target: T1, human alpha 1a adrenergic receptor (Homo sapiens, UniProt P35348); experiment: Screening Assay: Alpha 1a Adrenergic Receptor Binding ([125I]-HEAT competition binding); conditions: membranes of stably transfected human alpha 1a cell line; 100 pM [125I]-HEAT
T1 construct: expressed in transfected cells; host or cells: stably transfected human alpha 1a cell line (ATCC CRL 11140), membranes
T1 sequence (P35348 1-466): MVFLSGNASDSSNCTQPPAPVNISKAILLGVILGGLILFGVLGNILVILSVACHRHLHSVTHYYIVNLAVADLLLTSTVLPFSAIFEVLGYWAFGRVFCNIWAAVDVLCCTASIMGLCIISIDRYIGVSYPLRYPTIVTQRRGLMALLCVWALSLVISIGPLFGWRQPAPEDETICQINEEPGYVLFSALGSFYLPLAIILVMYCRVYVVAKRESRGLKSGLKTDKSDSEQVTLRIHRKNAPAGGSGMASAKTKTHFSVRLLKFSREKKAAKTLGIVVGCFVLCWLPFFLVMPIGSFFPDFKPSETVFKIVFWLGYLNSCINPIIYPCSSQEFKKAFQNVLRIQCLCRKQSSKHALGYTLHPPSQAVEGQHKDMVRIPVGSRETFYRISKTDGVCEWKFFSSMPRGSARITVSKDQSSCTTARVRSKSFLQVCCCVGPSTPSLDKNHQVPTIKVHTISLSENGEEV
Method: Screening Assay: Alpha 1a Adrenergic Receptor Binding
Membranes prepared from the stably transfected human alpha 1a cell line (ATCC CRL 11140) were used to identify compounds that bind to the human alpha 1a adrenergic receptor. These competition binding reactions (total volume=200 μl) contained 50 mM Tris-HCl pH. 7.4, 5 mM EDTA, 150 mM NaCl, 100 pM [^125 I]-HEAT, membranes prepared from the alpha 1a cell line and increasing amounts of unlabeled ligand. Reactions were incubated at room temperature for one hour with shaking. Reactions were filtered onto Whatman GF/C glass fiber filters with a Inotec 96 well cell harvester. Filters were washed three times with ice cold buffer and bound radioactivity was determined (Ki).

[2] = tested on: human alpha 1d adrenergic receptor; experiment: Selective Binding Assays, alpha 1d ([125I]-HEAT competition binding); conditions: alpha 1a versus alpha 1d
Method: (§1) Membranes prepared from stably transfected human alpha 1d and alpha 1b cell lines (ATCC CRL 11138 and CRL 11139, respectively) were used to identify compounds that selectively bind to the human alpha 1a adrenergic receptor. These competition binding reactions (total volume=200 μl ) contained 50 mM Tris-HCl pH. 7.4, 5 mM EDTA, 150 mM NaCl, 100 pM [^125 I]-HEAT, membranes prepared from cell lines transfected with the respective alpha 1 subtype expression plasmid and increasing amounts of unlabeled ligand. Reactions were incubated at room temperature for one hour with shaking. Reactions were filtered onto Whatman GF/C glass fiber filters with a Inotec 96 well cell harvester. Filters were washed three times with ice cold buffer and bound radioactivity was determined (Ki).

[3] = tested on: human alpha 1b adrenergic receptor; experiment: Selective Binding Assays, alpha 1b ([125I]-HEAT competition binding); conditions: alpha 1a versus alpha 1b
Method: as §1

| selectivity in binding to alpha 1a receptors versus alpha 1d receptors [2] | selectivity in binding to alpha 1a receptors versus alpha 1b receptors [3] | SMILES | Ki [1] |
| --- | --- | --- | --- |
|  |  | N#Cc1ccccc1C1(C#N)CCN(CCCNC(=O)N2C(=O)O[C@@H](C(N)=O)[C@@H]2c2ccc(F)c(F)c2)CC1 [Example 10] | 3.9 nM |
| about 76 fold | about 27 fold | O=C(c1ccccc1)[C@@H]1OC(=O)N(C(=O)NCCCN2CCC(c3ccc(F)cc3)CC2)[C@H]1c1ccc(F)c(F)c1 [Example 11] |  |

Reference: patent US6319932A, “Oxazolidinones useful as alpha 1A adrenoceptor antagonists” (Merck & Co., Inc., priority 1999, dated 2001)
